Results reported in the NIST ThermoML archive (doi:10.1021/je400539h).
Where “and” joins values, the source holds several entries; their conditions need not be identical. Equal values may be shown once. ± gives the expanded uncertainty stated by the source.

Legend:
[1] = 101 kPa, Liquid
[2] = xn = mol fraction of the nth substance listed; settings: 101 kPa, Liquid

C1COCCO1 [1,4-dioxane]
[1]
Settings	mass density [kg/m3]	speed of sound [m/s]	viscosity [mPa·s]
298.15 K	1028.2 ± 1	1328 ± 11	1.159 ± 0.028
303.15 K	1022.7 ± 1	1320 ± 11	1.087 ± 0.027
308.15 K	1017.4 ± 1	1312 ± 11	1.013 ± 0.025
313.15 K	1011.1 ± 1	1304 ± 11	0.934 ± 0.023

C=COCCCC [1-(ethenyloxy)butane]
[1]
Settings	mass density [kg/m3]	speed of sound [m/s]	viscosity [mPa·s]
298.15 K	780.2 ± 1.9	1096 ± 10	0.4 ± 0.015
303.15 K	774.1 ± 1.9	1084 ± 10	0.387 ± 0.014
308.15 K	768.2 ± 2	1072 ± 10	0.365 ± 0.014
313.15 K	763.3 ± 2	1060 ± 10	0.354 ± 0.014

COc1ccccc1 [anisole]
[1]
Settings	mass density [kg/m3]	speed of sound [m/s]	viscosity [mPa·s]
298.15 K	993.6 ± 1	1396 ± 12	0.97 ± 0.024
303.15 K	989.4 ± 1	1380 ± 12	0.917 ± 0.023
308.15 K	984.6 ± 1	1364 ± 12	0.863 ± 0.022
313.15 K	980 ± 1	1348 ± 11	0.803 ± 0.021

CCCCCCOC(C)=O [hexyl ethanoate]
[1]
Settings	mass density [kg/m3]	speed of sound [m/s]	viscosity
298.15 K	868.3 ± 1.5	1236 ± 11	1.071 ± 0.026 mPa·s
303.15 K	863.9 ± 1.5	1216 ± 11	0.982 ± 0.024 mPa·s
308.15 K	859.8 ± 1.5	1196 ± 11	0.898 ± 0.023 mPa·s and 0.899 ± 0.023 mPa·s
313.15 K	855 ± 1.5	1176 ± 10	0.836 ± 0.022 mPa·s

CCCCCCOC(C)=O [hexyl ethanoate] + C1COCCO1
[2]
Settings	mass density [kg/m3]	speed of sound [m/s]	viscosity [mPa·s]
298.15 K, x1 = 0.0546	1015 ± 1	1312 ± 11	1.143 ± 0.028
298.15 K, x1 = 0.1152	1000.7 ± 0.9	1292 ± 11	1.131 ± 0.028
298.15 K, x1 = 0.1825	985.9 ± 1	1280 ± 11	1.119 ± 0.027
298.15 K, x1 = 0.2572	970.6 ± 1	1268 ± 11	1.106 ± 0.027
298.15 K, x1 = 0.3416	954.6 ± 1.1	1256 ± 11	1.096 ± 0.027
298.15 K, x1 = 0.4094	942.8 ± 1.1	1248 ± 11	1.093 ± 0.027
298.15 K, x1 = 0.4773	931.9 ± 1.2	1240 ± 11	1.088 ± 0.027
298.15 K, x1 = 0.5836	916.5 ± 1.2	1236 ± 11	1.08 ± 0.026
298.15 K, x1 = 0.7044	900.8 ± 1.3	1236 ± 11	1.077 ± 0.026
298.15 K, x1 = 1	868.3 ± 1.5	1236 ± 11	1.071 ± 0.026
303.15 K, x1 = 0.0546	1009 ± 1	1300 ± 11	1.076 ± 0.026
303.15 K, x1 = 0.1152	994.8 ± 0.9	1280 ± 11	1.063 ± 0.026
303.15 K, x1 = 0.1825	979.9 ± 1	1268 ± 11	1.049 ± 0.026
303.15 K, x1 = 0.2572	964.6 ± 1	1256 ± 11	1.037 ± 0.025
303.15 K, x1 = 0.3416	948.8 ± 1.1	1244 ± 11	1.026 ± 0.025
303.15 K, x1 = 0.4094	937.1 ± 1.2	1236 ± 11	1.019 ± 0.025
303.15 K, x1 = 0.4773	926.4 ± 1.2	1228 ± 11	1.014 ± 0.025
303.15 K, x1 = 0.5836	911.1 ± 1.3	1224 ± 11	1.005 ± 0.025
303.15 K, x1 = 0.7044	895.7 ± 1.3	1224 ± 11	0.997 ± 0.025
303.15 K, x1 = 1	863.9 ± 1.5	1216 ± 11	0.982 ± 0.024
308.15 K, x1 = 0.0546	1003.4 ± 0.9	1288 ± 11	0.987 ± 0.024
308.15 K, x1 = 0.1152	988.9 ± 1	1268 ± 11	0.975 ± 0.024
308.15 K, x1 = 0.1825	974 ± 1	1256 ± 11	0.962 ± 0.024
308.15 K, x1 = 0.2572	958.8 ± 1.1	1244 ± 11	0.951 ± 0.024
308.15 K, x1 = 0.3416	943.2 ± 1.1	1232 ± 11	0.942 ± 0.024
308.15 K, x1 = 0.4094	931.7 ± 1.2	1224 ± 11	0.935 ± 0.024
308.15 K, x1 = 0.4773	921.1 ± 1.2	1216 ± 11	0.93 ± 0.023
308.15 K, x1 = 0.5836	906 ± 1.3	1212 ± 11	0.921 ± 0.023
308.15 K, x1 = 0.7044	890.8 ± 1.4	1212 ± 11	0.913 ± 0.023
308.15 K, x1 = 1	859.8 ± 1.5	1196 ± 11	0.898 ± 0.023
313.15 K, x1 = 0.0546	996.8 ± 0.9	1280 ± 11	0.935 ± 0.024
313.15 K, x1 = 0.1152	982.2 ± 1	1256 ± 11	0.924 ± 0.023
313.15 K, x1 = 0.1825	967.3 ± 1	1244 ± 11	0.912 ± 0.023
313.15 K, x1 = 0.2572	952.3 ± 1.1	1232 ± 11	0.9 ± 0.023
313.15 K, x1 = 0.3416	937 ± 1.2	1216 ± 11	0.889 ± 0.023
313.15 K, x1 = 0.4094	925.7 ± 1.2	1208 ± 11	0.88 ± 0.023
313.15 K, x1 = 0.4773	915.2 ± 1.2	1204 ± 11	0.874 ± 0.022
313.15 K, x1 = 0.5836	900.3 ± 1.3	1200 ± 11	0.864 ± 0.022
313.15 K, x1 = 0.7044	885.2 ± 1.4	1200 ± 11	0.855 ± 0.022
313.15 K, x1 = 1	855 ± 1.5	1176 ± 10	0.836 ± 0.022

CCCCCCOC(C)=O [hexyl ethanoate] + C=COCCCC
[2], x1 = 1
Settings	mass density [kg/m3]	speed of sound [m/s]	viscosity [mPa·s]
298.15 K	868.3 ± 1.5	1236 ± 11	1.071 ± 0.026
303.15 K	863.9 ± 1.5	1216 ± 11	0.982 ± 0.024
308.15 K	859.8 ± 1.5	1196 ± 11	0.899 ± 0.023
313.15 K	855 ± 1.5	1176 ± 10	0.836 ± 0.022

CCCCCCOC(C)=O [hexyl ethanoate] + COc1ccccc1
[2]
Settings	mass density [kg/m3]	speed of sound [m/s]	viscosity [mPa·s]
298.15 K, x1 = 0.0698	979.8 ± 1	1376 ± 12	1.022 ± 0.025
298.15 K, x1 = 0.1417	969.7 ± 1	1360 ± 12	1.031 ± 0.025
298.15 K, x1 = 0.221	959 ± 1.1	1344 ± 11	1.038 ± 0.026
298.15 K, x1 = 0.3061	947.7 ± 1.1	1328 ± 11	1.047 ± 0.026
298.15 K, x1 = 0.398	935.8 ± 1.2	1312 ± 11	1.054 ± 0.026
298.15 K, x1 = 0.4979	923.4 ± 1.2	1300 ± 11	1.058 ± 0.026
298.15 K, x1 = 0.606	910.5 ± 1.3	1284 ± 11	1.061 ± 0.026
298.15 K, x1 = 0.7254	896.9 ± 1.3	1268 ± 11	1.065 ± 0.026
298.15 K, x1 = 0.8556	882.9 ± 1.4	1252 ± 11	1.07 ± 0.026
298.15 K, x1 = 1	868.3 ± 1.5	1236 ± 11	1.071 ± 0.026
303.15 K, x1 = 0.0698	975 ± 1	1360 ± 12	0.932 ± 0.024
303.15 K, x1 = 0.1417	964.7 ± 1.1	1340 ± 11	0.94 ± 0.024
303.15 K, x1 = 0.221	953.8 ± 1.1	1324 ± 11	0.95 ± 0.024
303.15 K, x1 = 0.3061	942.6 ± 1.1	1304 ± 11	0.959 ± 0.024
303.15 K, x1 = 0.398	930.8 ± 1.2	1288 ± 11	0.967 ± 0.024
303.15 K, x1 = 0.4979	918.4 ± 1.2	1272 ± 11	0.972 ± 0.024
303.15 K, x1 = 0.606	905.5 ± 1.3	1260 ± 11	0.975 ± 0.024
303.15 K, x1 = 0.7254	891.9 ± 1.4	1244 ± 11	0.98 ± 0.024
303.15 K, x1 = 0.8556	878 ± 1.4	1232 ± 11	0.983 ± 0.024
303.15 K, x1 = 1	863.9 ± 1.5	1216 ± 11	0.982 ± 0.024
308.15 K, x1 = 0.0698	968.1 ± 1	1340 ± 11	0.86 ± 0.022
308.15 K, x1 = 0.1417	957.8 ± 1.1	1320 ± 11	0.872 ± 0.022
308.15 K, x1 = 0.221	947.1 ± 1.1	1296 ± 11	0.878 ± 0.023
308.15 K, x1 = 0.3061	936.2 ± 1.2	1280 ± 11	0.886 ± 0.023
308.15 K, x1 = 0.398	925 ± 1.2	1264 ± 11	0.894 ± 0.023
308.15 K, x1 = 0.4979	913 ± 1.3	1248 ± 11	0.898 ± 0.023
308.15 K, x1 = 0.606	900.3 ± 1.3	1236 ± 11	0.901 ± 0.023
308.15 K, x1 = 0.7254	886.8 ± 1.4	1224 ± 11	0.903 ± 0.023
308.15 K, x1 = 0.8556	873.1 ± 1.4	1208 ± 11	0.902 ± 0.023
308.15 K, x1 = 1	859.8 ± 1.5	1196 ± 11	0.898 ± 0.023
313.15 K, x1 = 0.0698	961.6 ± 1.1	1320 ± 11	0.779 ± 0.021
313.15 K, x1 = 0.1417	951.2 ± 1.1	1296 ± 11	0.791 ± 0.021
313.15 K, x1 = 0.221	940.5 ± 1.1	1272 ± 11	0.802 ± 0.021
313.15 K, x1 = 0.3061	929.8 ± 1.2	1252 ± 11	0.811 ± 0.021
313.15 K, x1 = 0.398	918.6 ± 1.2	1236 ± 11	0.823 ± 0.022
313.15 K, x1 = 0.4979	906.8 ± 1.3	1220 ± 11	0.828 ± 0.022
313.15 K, x1 = 0.606	894.4 ± 1.3	1204 ± 11	0.833 ± 0.022
313.15 K, x1 = 0.7254	881.2 ± 1.4	1192 ± 11	0.838 ± 0.022
313.15 K, x1 = 0.8556	867.8 ± 1.5	1184 ± 10	0.84 ± 0.022
313.15 K, x1 = 1	855 ± 1.5	1176 ± 10	0.836 ± 0.022

C1CCOC1 [tetrahydrofuran]
[1]
Settings	mass density [kg/m3]	speed of sound [m/s]	viscosity [mPa·s]
298.15 K	881.5 ± 1.4	1268 ± 11	0.45 ± 0.015
303.15 K	878.7 ± 1.4	1248 ± 11	0.439 ± 0.015
308.15 K	873 ± 1.4	1228 ± 11	0.429 ± 0.015
313.15 K	866.9 ± 1.5	1212 ± 11	0.404 ± 0.015

C1CCOC1 [tetrahydrofuran] + CCCCCCOC(C)=O
[2], x2 = 0
Settings	mass density [kg/m3]	speed of sound [m/s]	viscosity [mPa·s]
298.15 K	881.5 ± 1.4	1268 ± 11	0.45 ± 0.015
303.15 K	878.7 ± 1.4	1248 ± 11	0.439 ± 0.015
308.15 K	873 ± 1.4	1228 ± 11	0.429 ± 0.015
313.15 K	866.9 ± 1.5	1212 ± 11	0.404 ± 0.015
